# Source: US20090264375A1, “INTRAOCULAR IRRIGATING SOLUTIONS AND METHODS FOR TREATING CORNEAL EDEMA” (ALCON RESEARCH, LTD., priority 2007, published 2009)
# Test: GSSG content after autoclaving at F0=8
# Assay type: physicochemical
# Conditions: 0.4% histidine in reconstituted BSS PLUS, autoclaved
# Text: The composition of reconstituted BSS PLUS® Sterile Intraocular Irrigating Solution is shown below in Table 1. The reconstituted product was used as a control solution. A sample of the reconstituted product was then spiked with 0.4% histidine to form the experimental solution. The control solution and the experimental solution were then each divided into two replicates each. The pH of one control and one experimental replicate was then adjusted to pH 6.8 and the pH of the other replicate was adjusted to pH 7.4. Both sets of the solutions were then autoclaved at F0=8. After autoclaving, GSSG contents in all the solutions were determined and the results are tabulated in Table 2 as percent GSSG remaining of the label claim in BSS PLUS® Sterile Intraocular Irrigating Solution.
# All of the above solutions were autoclaved in the same cycle. However, in this particular experiment, the sterilizer used was not capable of finely regulating F0 and thus significant degradation of GSSG occurred.
smiles,measurement,value
N[C@@H](Cc1c[nH]cn1)C(=O)O [histidine],Effect on GSSG stability in solution,stabilizes GSSG in solution
